Measured values published in US10280229B2, “Linkers and their application towards ADC” (MEDSHINE DISCOVERY INC., priority 2014, dated 2019).

Molecular target: bovine cathepsin B (Bos taurus, UniProt P07688)
Assay: Rate of hydrolysis of fluorescent dipeptide substrates incubated with bovine cathepsin B (release of 7-AMC)
Format: biochemical
Conditions: incubation with bovine cathepsin B
Procedure: A convenient method was developed to identify suitable dipeptide units for the use in drug-linker intermediates. Cbz-protected dipeptides incorporated a fluorescent tag (7-amino-4-methylcouramin, 7-AMC) via a para-aminobenzyl carbonyl fragment were prepared by standard peptide chemistry as shown in Scheme 1. These dipeptide substrates were then incubated with bovine cathepsin B under a similar condition as described by Dubowchik (Biorg. Med. Chem. Lett. 1998, 8, 3341-3346). Rate of hydrolysis by bovine cathepsin B was measured by the release of 7-AMC (Table 1). Novel dipeptides with hydrolysis rates slower than the substrate A were rejected. The three dipeptide units in FS-9, FS-10 and FS-11 were selected as additional dipeptide units for drug-linker intermediate preparation.

Row | Compound | Rate of Hydrolysis [nmmol/min/mg]
1 | CCOC(=O)N1CCC([C@H](NC(=O)OCc2ccccc2)C(=O)N[C@@H](CCCNC(N)=O)C(=O)Nc2ccc(COC(=O)Nc3ccc4c(C)cc(=O)oc4c3)cc2)CC1 | 0.63
2 | Cc1cc(=O)oc2cc(NC(=O)OCc3ccc(NC(=O)[C@H](CCCNC(N)=O)NC(=O)[C@@H](NC(=O)OCc4ccccc4)C4CCSCC4)cc3)ccc12 | 0
3 | Cc1cc(=O)oc2cc(NC(=O)OCc3ccc(NC(=O)[C@H](CCCN4CCOCC4)NC(=O)[C@@H](NC(=O)OCc4ccccc4)C(C)C)cc3)ccc12 | 27.2
4 | Cc1cc(=O)oc2cc(NC(=O)OCc3ccc(NC(=O)C(CC4CCC(CN)CC4)NC(=O)[C@@H](NC(=O)OCc4ccccc4)C(C)C)cc3)ccc12 (stereo partly drawn) | 20.9
5 | Cc1cc(=O)oc2cc(NC(=O)OCc3ccc(NC(=O)[C@H](CCCNC(N)=O)NC(=O)[C@@H](NC(=O)OCc4ccccc4)C4CCNCC4)cc3)ccc12 | 0.84
6 | Cc1cc(=O)oc2cc(NC(=O)OCc3ccc(NC(=O)[C@H](CCCNC(N)=O)NC(=O)[C@@H](NC(=O)OCc4ccccc4)C(C)C)cc3)ccc12 [reference compound] | 2.67
7 | Cc1cc(=O)oc2cc(NC(=O)OCc3ccc(NC(=O)[C@H](CCCNC(N)=O)NC(=O)[C@@H](NC(=O)OCc4ccccc4)C4CC[S+]([O-])CC4)cc3)ccc12 (stereo partly drawn) | 0.55
8 | Cc1cc(=O)oc2cc(NC(=O)OCc3ccc(NC(=O)[C@H](CCCNC(N)=O)NC(=O)[C@@H](NC(=O)OCc4ccccc4)C4CCCNC4)cc3)ccc12 (stereo partly drawn) | 0
9 | Cc1cc(=O)oc2cc(NC(=O)OCc3ccc(NC(=O)[C@H](CCCNC(N)=O)NC(=O)[C@@H](NC(=O)OCc4ccccc4)C4CCN(C)CC4)cc3)ccc12 | 0.59
10 | Cc1cc(=O)oc2cc(NC(=O)OCc3ccc(NC(=O)[C@H](CCCNC(N)=O)NC(=O)[C@@H](NC(=O)OCc4ccccc4)C4CCS(=O)(=O)CC4)cc3)ccc12 | 0
11 | Cc1cc(=O)oc2cc(NC(=O)OCc3ccc(NC(=O)[C@H](CCCNC(N)=O)NC(=O)[C@@H](NC(=O)OCc4ccccc4)C4CCOCC4)cc3)ccc12 | 0.84
12 | Cc1cc(=O)oc2cc(NC(=O)OCc3ccc(NC(=O)[C@H](CCCN4CCCCC4)NC(=O)[C@@H](NC(=O)OCc4ccccc4)C(C)C)cc3)ccc12 | 25.1
